ChEMBL document CHEMBL1201862, “PubChem BioAssay data set” (2004)
Activity calls are given as the source filed them.

Assays:
[1] = biological target: Galanin receptor type 3 (Homo sapiens, UniProt O60755); assay: Fluorescence-based cell-based primary high throughput dose response assay to identify antagonists of the Galanin Receptor 3 (GalR3).; assay type: functional
[2] = biological target: T1, COUP transcription factor 2 (Homo sapiens, UniProt P24468); assay: Luminescence-based cell-based high throughput dose response assay to identify inhibitors of COUP-TFII (NR2F2).; assay type: functional;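 note: HEK293 cells transiently cotransfected with COUP-TFII expression vector and reporter; luciferase reporter luminescence driven by COUP-TFII from the pX2-168 reporter plasmid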
T1 sequence (P24468 whole entry): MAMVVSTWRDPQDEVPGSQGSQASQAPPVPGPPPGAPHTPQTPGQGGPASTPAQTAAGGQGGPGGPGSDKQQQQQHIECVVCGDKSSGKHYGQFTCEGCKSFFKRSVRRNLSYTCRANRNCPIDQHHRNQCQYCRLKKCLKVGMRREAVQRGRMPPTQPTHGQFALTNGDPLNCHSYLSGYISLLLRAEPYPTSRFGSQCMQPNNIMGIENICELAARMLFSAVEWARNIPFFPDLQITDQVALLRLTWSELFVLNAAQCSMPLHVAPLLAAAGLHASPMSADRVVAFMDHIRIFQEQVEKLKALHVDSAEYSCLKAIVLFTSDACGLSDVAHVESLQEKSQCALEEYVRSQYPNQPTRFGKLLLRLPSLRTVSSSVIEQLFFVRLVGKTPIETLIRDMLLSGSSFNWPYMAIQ

[3] = HEK-293T viability loss after treatment – luminescence, T-cell screen hits, cytotoxicity control for TCR NF-kB inhibitor project, dose response (AID 489026); assay type: functional, cell-based;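 note: cells exposed to compound about 14 hours before the viability readout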
[4] = system: INS1; assay: INS-1E survival protection against cytokine death – cell-based, luminescence, retest, dose response (AID 449756); assay type: functional; conditions: Rattus norvegicus;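 note: cell death triggered by IL-1 beta plus TNF-alpha plus IFN-gamma mixture; protective hits raise ATP signal compared with cytokine alone wells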
[5] = cells; assay type: functional, cell-based; conditions: HEK-CNG
[6] = biological target: T2, Beta-lactamase (Pseudomonas aeruginosa, UniProt Q79MP6); assay: inhibition of IMP-1 beta-lactamase activity – biochemical, epi-absorbance, selectivity assay for VIM-2 inhibitor project, dose response (AID 1920)
T2 sequence (Q79MP6 whole entry): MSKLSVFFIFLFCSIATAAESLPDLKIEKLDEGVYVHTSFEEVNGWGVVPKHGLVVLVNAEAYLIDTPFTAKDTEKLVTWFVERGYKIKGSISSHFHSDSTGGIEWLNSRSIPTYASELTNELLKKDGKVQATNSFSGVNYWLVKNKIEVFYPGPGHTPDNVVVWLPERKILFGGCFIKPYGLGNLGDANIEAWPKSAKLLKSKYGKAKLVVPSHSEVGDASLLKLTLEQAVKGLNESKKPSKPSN

[7] = biological target: T2, Beta-lactamase; assay: […] counterscreen for selective VIM-2 inhibitors: dose response biochemical high throughput screening assay to identify inhibitors of IMP-1 metallo-beta-lactamase.
[8] = biological target: Beta-lactamase (Salmonella choleraesuis (strain SC-B67), UniProt Q5J463); assay: Epi-absorbance-based counterscreen for selective VIM-2 inhibitors: dose response biochemical high throughput screening assay to identify inhibitors of TEM-1 serine-beta-lactamase.
Beta-lactamase (Salmonella choleraesuis (strain SC-B67), UniProt Q5J463), sequence (Q5J463 whole entry): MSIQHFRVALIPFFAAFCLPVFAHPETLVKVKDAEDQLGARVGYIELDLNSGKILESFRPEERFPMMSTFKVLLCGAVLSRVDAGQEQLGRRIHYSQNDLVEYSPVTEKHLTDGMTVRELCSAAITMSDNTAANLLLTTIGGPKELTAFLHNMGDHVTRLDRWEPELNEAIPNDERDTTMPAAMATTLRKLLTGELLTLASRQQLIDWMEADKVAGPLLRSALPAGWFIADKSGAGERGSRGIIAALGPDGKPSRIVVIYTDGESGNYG

[9] = biological target: Mu-type opioid receptor (Homo sapiens, UniProt P35372); assay type: functional, cell-based;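 note: U2OS cells with beta-arrestin recruitment to OPRM1 by beta-gal complementation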
Mu-type opioid receptor, sequence (P35372 whole entry): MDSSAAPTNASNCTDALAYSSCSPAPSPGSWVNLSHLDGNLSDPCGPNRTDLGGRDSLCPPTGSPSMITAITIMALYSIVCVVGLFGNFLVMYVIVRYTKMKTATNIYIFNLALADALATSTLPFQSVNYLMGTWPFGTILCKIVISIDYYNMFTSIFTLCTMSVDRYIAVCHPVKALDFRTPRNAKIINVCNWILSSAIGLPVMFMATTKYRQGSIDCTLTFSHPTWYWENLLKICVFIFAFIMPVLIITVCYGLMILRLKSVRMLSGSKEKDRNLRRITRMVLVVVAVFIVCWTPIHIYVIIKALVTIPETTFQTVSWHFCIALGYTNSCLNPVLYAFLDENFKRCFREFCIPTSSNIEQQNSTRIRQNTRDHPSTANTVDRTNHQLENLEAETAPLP

[10] = biological target: 5-hydroxytryptamine receptor 2A (Mus musculus, UniProt P35363); assay type: functional, cell-based;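 note: CHO-K1 cells with tagged receptor and beta-arrestin; agonist potency measured as compound-induced activation of the receptor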
5-hydroxytryptamine receptor 2A, sequence (P35363 whole entry): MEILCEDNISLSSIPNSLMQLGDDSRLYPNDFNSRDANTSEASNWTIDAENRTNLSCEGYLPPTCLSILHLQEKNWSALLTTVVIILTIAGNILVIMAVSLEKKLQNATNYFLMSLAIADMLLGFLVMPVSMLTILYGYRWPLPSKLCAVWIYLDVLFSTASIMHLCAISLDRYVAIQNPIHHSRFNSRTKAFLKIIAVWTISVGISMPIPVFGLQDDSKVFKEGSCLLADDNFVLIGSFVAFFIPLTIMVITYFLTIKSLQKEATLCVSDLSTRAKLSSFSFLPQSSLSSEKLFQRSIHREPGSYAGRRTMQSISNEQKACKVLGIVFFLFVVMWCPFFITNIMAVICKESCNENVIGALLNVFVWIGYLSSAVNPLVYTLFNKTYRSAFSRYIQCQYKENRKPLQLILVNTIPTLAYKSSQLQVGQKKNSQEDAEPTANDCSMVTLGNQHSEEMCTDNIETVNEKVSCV

[11] = biological target: Paired box protein Pax-8 (Homo sapiens, UniProt Q06710); assay: PAX8 transcriptional activity inhibition in RMG-I – RMG-I cells, luciferase, cherry-pick, dose response (AID 687027); assay type: functional, cell-based;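 note: luciferase reporter driven by Pax8 target thyroperoxidase promoter measured by SteadyGlo luminescence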
Paired box protein Pax-8, sequence (Q06710 whole entry): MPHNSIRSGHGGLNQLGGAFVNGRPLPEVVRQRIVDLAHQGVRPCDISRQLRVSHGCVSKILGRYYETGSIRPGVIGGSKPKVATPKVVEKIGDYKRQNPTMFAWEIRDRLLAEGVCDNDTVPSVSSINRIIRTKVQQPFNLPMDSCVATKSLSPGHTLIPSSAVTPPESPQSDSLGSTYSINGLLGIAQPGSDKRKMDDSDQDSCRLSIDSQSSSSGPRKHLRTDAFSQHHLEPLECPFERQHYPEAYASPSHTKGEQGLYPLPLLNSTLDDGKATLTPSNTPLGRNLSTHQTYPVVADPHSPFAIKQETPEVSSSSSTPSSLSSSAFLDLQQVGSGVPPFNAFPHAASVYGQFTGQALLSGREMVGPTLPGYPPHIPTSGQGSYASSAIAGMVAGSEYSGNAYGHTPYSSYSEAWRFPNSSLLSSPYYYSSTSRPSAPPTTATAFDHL

[12] = CMV-driven luciferase expression suppression in HEK293 – cell-based, luminescence, dry powder, counter-screen for Pax8 inhibitor project, dose response (AID 743020); assay type: functional
[13] = OVCAR-3 cell viability loss – plate reader, dry powder samples, PAX8 inhibitor project, dose response (AID 743044); assay type: functional, cell-based
[14] = OVCAR8 cell viability loss – plate reader, dry powder samples, PAX8 project, dose response (AID 743197); assay type: functional, cell-based; conditions: OVCAR-8
[15] = IGROV1 cell killing – plate reader, dry powder samples, PAX8 inhibitor project, dose response (AID 743043); assay type: functional, cell-based; conditions: IGROV-1
[16] = anti-trypanosomal activity in BESM host cells – imaging, CA-I/72 strain, bovine embryo skeletal muscle, dry powder, dose response (AID 651885); assay type: functional, cell-based

Galanin receptor type 3, sequence (O60755 whole entry): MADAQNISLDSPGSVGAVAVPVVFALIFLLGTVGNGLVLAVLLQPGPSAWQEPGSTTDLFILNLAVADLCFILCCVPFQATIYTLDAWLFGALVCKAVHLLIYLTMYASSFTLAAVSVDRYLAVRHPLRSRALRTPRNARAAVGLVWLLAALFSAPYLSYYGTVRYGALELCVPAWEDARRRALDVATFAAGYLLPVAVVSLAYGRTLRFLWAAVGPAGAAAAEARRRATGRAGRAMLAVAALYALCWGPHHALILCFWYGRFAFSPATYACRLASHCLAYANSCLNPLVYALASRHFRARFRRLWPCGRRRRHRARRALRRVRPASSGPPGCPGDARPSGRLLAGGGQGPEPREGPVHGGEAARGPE

In the case of `Cn1nc(C(C)(C)C)cc1C(=O)NCc1cc(F)cc2c1OCOC2`, the IC50 [1] is reported as 0.987 µM (active), the IC50 [2] is reported as 6.69 µM (active) and the IC50 [3] is reported as > 80 µM (inactive). The AC50 [4] was 4.13 µM (active) and the EC50 [5] was > 29.9 µM (inactive).

For `CC1=C(C(=O)O)N2C(=O)C(NC(=O)c3nn(C)cc3[N+](=O)[O-])C2SC1` (configuration not stated), the IC50 [6] was > 59.6 µM (inactive), the IC50 [7] was > 59.6 µM (inactive) and the IC50 [8] was > 59.6 µM (inactive).

In the case of `O=C(C1CCN(CCCc2ccccc2)CC1)N1CCCCC1`, the EC50 [9] is reported as 92.5 µM (inactive) and the EC50 [10] is reported as 76.1 µM (inactive).

For `C[C@@H]1CCCCO[C@H](CN(C)CC2CCCCC2)[C@H](C)CN([C@@H](C)CO)C(=O)c2cc(NS(=O)(=O)c3ccc(Cl)cc3)ccc2O1`, the AC50 [11] was 6.43 µM (active) and the AC50 [12] was 50.5 µM (active).

For `Cc1ccc(S(=O)(=O)N(C)C[C@H]2OCCCC[C@H](C)Oc3ccc(NS(=O)(=O)c4ccc(Cl)cc4)cc3C(=O)N([C@H](C)CO)C[C@@H]2C)cc1`, the AC50 [13] was 17.9 µM (active), the AC50 [14] was 31.7 µM (active) and the AC50 [11] was 4.09 µM (active). For the same molecule, the AC50 [15] was 45.7 µM (active).

With `CNC[C@@H]1Oc2c(NC(=O)c3ccncc3)cccc2C(=O)N(C(C)C)C[C@H]1C` the IC50 [16] was > 20 µM (inactive).
